The values below come from PubChem BioAssay AID328 (DTP/NCI, 2004).

Where “and” joins values, the source holds several entries; their conditions need not be identical. Equal values may be shown once. Inconclusive results and toxic doses are left out.

The test system of this assay is BDF1 mice, P388 leukemia ip, median survival T/C. As to the kind of experiment: NCI In Vivo Anticancer Drug Screen. Data for tumor model P388 Leukemia (intraperitoneal) in B6D2F1 (BDF1) mice. Particulars: endpoint: median survival time, higher = longer survival. The method in brief:
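Mice carrying the transplantable tumour receive compound or vehicle. Survival is followed in each arm, and the treated measure is divided by the vehicle measure.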

Where [1] appears, read: dose: 25.0 mg/kg/injection, schedule: Q01DX009 (ip), vehicle: Klucel (hydroxypropylcellulose) (HPC).
Where [2] appears, read: dose: 50.0 mg/kg/injection, schedule: Q01DX009 (ip), vehicle: Klucel (hydroxypropylcellulose) (HPC).
[3] abbreviates: dose: 100.0 mg/kg/injection, schedule: Q04DX003 (ip), vehicle: saline.
Where [4] appears, read: dose: 20.0 mg/kg/injection, schedule: Q04DX003 (ip), vehicle: saline with Tween-80.
Setting [5] is: dose: 200.0 mg/kg/injection, schedule: Q01DX009 (ip), vehicle: saline.
Where [6] appears, read: dose: 400.0 mg/kg/injection, schedule: Q01DX009 (ip), vehicle: saline.
Where [7] appears, read: dose: 50.0 mg/kg/injection, schedule: Q01DX009 (ip), vehicle: saline with Tween-80.
Where [8] appears, read: dose: 100.0 mg/kg/injection, schedule: Q01DX009 (ip), vehicle: saline with Tween-80.
Setting [9] is: dose: 200.0 mg/kg/injection, schedule: Q01DX009 (ip), vehicle: saline with Tween-80.

Consider `O=NN(CCCl)C(=O)Nc1cccc(O)c1`, for which the T/C runs as follows: (dose: 22.0 mg/kg/injection, schedule: Q04DX003 (ip), vehicle: Klucel (hydroxypropylcellulose) (HPC)) 190 % of control; under setting [1], 215 % of control; (dose: 33.0 mg/kg/injection, schedule: Q04DX003 (ip), vehicle: Klucel (hydroxypropylcellulose) (HPC)) 186 % of control; (dose: 35.0 mg/kg/injection, schedule: Q01DX009 (ip), vehicle: Klucel (hydroxypropylcellulose) (HPC)) 100 % of control; under setting [2], 88 % of control and 215 % of control; (dose: 50.0 mg/kg/injection, schedule: Q04DX003 (ip), vehicle: Klucel (hydroxypropylcellulose) (HPC)) 186 % of control. Also, the T/C (dose: 66.0 mg/kg/injection, schedule: Q04DX003 (ip), vehicle: saline) is 222 % of control; the T/C (dose: 75.0 mg/kg/injection, schedule: Q01DX009 (ip), vehicle: Klucel (hydroxypropylcellulose) (HPC)) was 158 % of control; the T/C (dose: 100.0 mg/kg/injection, schedule: Q01DX009 (ip), vehicle: Klucel (hydroxypropylcellulose) (HPC)) is 105 % of control; the T/C (dose: 100.0 mg/kg/injection, schedule: Q04DX003 (ip), vehicle: Klucel (hydroxypropylcellulose) (HPC)) was 222 % of control; the T/C under setting [3] is 272 % of control.
Consider `CC1([CH2][Hg][I])COCC([CH2][Hg][I])O1` (configuration not stated), for which the T/C runs as follows: (dose: 2.87 mg/kg/injection, schedule: Q04DX003 (ip), vehicle: saline) 100 % of control; (dose: 5.0 mg/kg/injection, schedule: Q01DX009 (ip), vehicle: saline with Tween-80) 118 % of control; (dose: 5.0 mg/kg/injection, schedule: Q04DX003 (ip), vehicle: saline with Tween-80) 100 % of control; (dose: 5.75 mg/kg/injection, schedule: Q01DX009 (ip), vehicle: saline) 95 % of control; (dose: 5.75 mg/kg/injection, schedule: Q04DX003 (ip), vehicle: saline) 109 % of control; (dose: 10.0 mg/kg/injection, schedule: Q01DX009 (ip), vehicle: saline with Tween-80) 113 % of control. Further, the T/C reads like this: (dose: 10.0 mg/kg/injection, schedule: Q04DX003 (ip), vehicle: saline with Tween-80) 90 % of control; (dose: 11.5 mg/kg/injection, schedule: Q01DX009 (ip), vehicle: saline) 100 % of control; (dose: 11.5 mg/kg/injection, schedule: Q04DX003 (ip), vehicle: saline) 100 % of control; (dose: 17.0 mg/kg/injection, schedule: Q04DX003 (ip), vehicle: saline) 100 % of control; (dose: 20.0 mg/kg/injection, schedule: Q01DX009 (ip), vehicle: saline with Tween-80) 95 % of control; under setting [4], 118 % of control. For the same molecule, the T/C (dose: 26.0 mg/kg/injection, schedule: Q04DX003 (ip), vehicle: saline) was 118 % of control.
With `COC(=O)C(NC(=O)c1ccccc1)=C(COC(C)=O)COC(C)=O`, the T/C runs as follows: (dose: 100.0 mg/kg/injection, schedule: Q04DX003 (ip), vehicle: saline sonified) 95 % of control; (dose: 200.0 mg/kg/injection, schedule: Q04DX003 (ip), vehicle: saline sonified) 100 % of control; (dose: 400.0 mg/kg/injection, schedule: Q04DX003 (ip), vehicle: saline sonified) 110 % of control.
`CNNCc1ccc(C(=O)NC(N)=O)cc1`: the T/C under setting [3] is 95 % of control; the T/C (dose: 133.0 mg/kg/injection, schedule: Q01DX009 (ip), vehicle: saline) is 111 % of control; the T/C under setting [5] is 100 % of control; the T/C (dose: 200.0 mg/kg/injection, schedule: Q04DX003 (ip), vehicle: saline) is 95 % of control; the T/C under setting [6] was 107 % of control; the T/C (dose: 400.0 mg/kg/injection, schedule: Q04DX003 (ip), vehicle: saline) was 113 % of control.
Take `CC[C@H]1CN2CCc3cc(OC)c(OC)cc3[C@@H]2C[C@@H]1C[C@@H]1c2cc(OC)c(OC)cc2CCN1CCN(CCCl)CCCl`: the T/C is 121 % of control (dose: 4.3 mg/kg/injection, schedule: Q04DX003 (ip), vehicle: saline with Tween-80); 108 % of control (dose: 6.48 mg/kg/injection, schedule: Q04DX003 (ip), vehicle: saline with Tween-80); 119 % of control (dose: 10.8 mg/kg/injection, schedule: Q04DX003 (ip), vehicle: saline with Tween-80); 153 % of control (dose: 12.0 mg/kg/injection, schedule: Q04DX003 (ip), vehicle: saline with Tween-80); 157 % of control under setting [4].
Take `O=C1NC(=S)S/C1=C\c1ccncc1`: the T/C is 113 % of control under setting [7]; 106 % of control under setting [8]; 106 % of control under setting [9]; 106 % of control (dose: 400.0 mg/kg/injection, schedule: Q01DX009 (ip), vehicle: saline with Tween-80).
Consider `COc1ccc2nc3c(Cl)c(Cl)c(=O)c(Cl)c-3sc2c1`, for which the T/C (dose: 12.5 mg/kg/injection, schedule: Q01DX005 (ip), vehicle: saline with Tween-80) is 102 % of control and the T/C (dose: 25.0 mg/kg/injection, schedule: Q01DX005 (ip), vehicle: saline with Tween-80) is 88 % of control.
For the molecule `CCOc1nc(=O)n(C2CCOC2=O)cc1F` (configuration not stated), the T/C runs as follows: (dose: 100.0 mg/kg/injection, schedule: Q01DX001 (ip), vehicle: Klucel (hydroxypropylcellulose) (HPC)) 100 % of control; (dose: 200.0 mg/kg/injection, schedule: Q01DX001 (ip), vehicle: Klucel (hydroxypropylcellulose) (HPC)) 100 % of control; (dose: 400.0 mg/kg/injection, schedule: Q01DX001 (ip), vehicle: Klucel (hydroxypropylcellulose) (HPC)) 104 % of control.
In the case of `[Cl][Pt+2][Cl].[NH-]C1CCC1.[NH-]C1CCC1`, the T/C reads like this: (dose: 12.5 mg/kg/injection, schedule: Q01DX009 (ip), vehicle: Klucel (hydroxypropylcellulose) (HPC)) 173 % of control and 201 % of control; under setting [1], 195 % of control and 213 % of control; under setting [2], 94 % of control and 115 % of control.
As for `CN(C)c1ccc(C=Nc2ccc(/C=C\c3ccnc4ccccc34)cc2)cc1`, the T/C runs as follows: under setting [7], 107 % of control; under setting [8], 117 % of control; under setting [9], 100 % of control.
`CCCCCCCCCCN(CCCCCCCCCC)C1CC(OC2CC(O)(C(C)=O)Cc3c(O)c4c(c(O)c32)C(=O)c2c(OC)cccc2C4=O)OC(C)C1O` (configuration not stated): the T/C is, setting by setting: (dose: 37.5 mg/kg/injection, schedule: Q04DX003 (ip), vehicle: other) 99 % of control; (dose: 75.0 mg/kg/injection, schedule: Q04DX003 (ip), vehicle: other) 103 % of control; (dose: 150.0 mg/kg/injection, schedule: Q04DX003 (ip), vehicle: other) 94 % of control; (dose: 300.0 mg/kg/injection, schedule: Q04DX003 (ip), vehicle: other) 99 % of control; (dose: 400.0 mg/kg/injection, schedule: Q04DX003 (ip), vehicle: other) 90 % of control.
Take `CCCCNC(=O)c1ccccc1Sc1ccccc1C(=O)NCCCC`: the T/C is, setting by setting: (dose: 100.0 mg/kg/injection, schedule: Q04DX002 (ip), vehicle: saline with Tween-80) 107 % of control; (dose: 200.0 mg/kg/injection, schedule: Q04DX002 (ip), vehicle: saline with Tween-80) 109 % of control; (dose: 400.0 mg/kg/injection, schedule: Q04DX002 (ip), vehicle: saline with Tween-80) 104 % of control.
Regarding `C[n+]1c2ccccc2c(Nc2ccc(NS(=O)(=O)CCCCN=C(N)N)cc2)c2ccc(N)cc21`, the T/C (dose: 3.0 mg/kg/injection, schedule: Q01DX009 (ip), vehicle: water) is 205 % of control and the T/C (dose: 6.0 mg/kg/injection, schedule: Q01DX009 (ip), vehicle: water) is 116 % of control.
With `Cc1nnc2c(=O)[nH]ccn12`, the T/C (dose: 100.0 mg/kg/injection, schedule: Q01DX001 (ip), vehicle: saline with Tween-80) was 106 % of control; the T/C (dose: 200.0 mg/kg/injection, schedule: Q01DX001 (ip), vehicle: saline with Tween-80) is 100 % of control; the T/C (dose: 400.0 mg/kg/injection, schedule: Q01DX001 (ip), vehicle: saline with Tween-80) was 103 % of control.
As to `CN(C)N=Nc1ccc(NC(N)=O)cc1`, for the setting “dose: 25.0 mg/kg/injection, schedule: Q04DX003 (ip), vehicle: saline + Tween-80 + alcohol”, the T/C is 112 % of control.
For the molecule `CC(=N\O)/C(C)=N/O.CC(=N\O)/C(C)=N/O.[Br][Rh][Br]`, the T/C runs as follows: (dose: 25.0 mg/kg/injection, schedule: Q01DX009 (ip), vehicle: saline) 99 % of control; (dose: 50.0 mg/kg/injection, schedule: Q01DX009 (ip), vehicle: saline) 100 % of control; (dose: 100.0 mg/kg/injection, schedule: Q01DX009 (ip), vehicle: saline) 119 % of control and 92 % of control; under setting [5], 110 % of control and 99 % of control and 100 % of control; under setting [6], 100 % of control.
